According to ChEMBL document CHEMBL1201862, “PubChem BioAssay data set” (2004):
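1) Cells in 96-well plates. 2) Compound, 48 h, 5 concentrations. 3) Linear interpolation between surrounding doses. 4) Unreached endpoint = highest concentration. GI50: concentration for 50% inhibition of growth.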 Active and inactive are the calls of the source. Cut-off read from the data, not from the text of the source: active = GI50 up to about 1.1 µM and inactive = higher.

What was measured:
Experiment in all cases: growth of human tumour cells (NCI), 48 h
OVCAR-4 = test system: OVCAR-4
NCI-H226 = test system: NCI-H226
NCI-H460 = test system: NCI-H460
HL-60 = test system: HL-60
UACC-62 = test system: UACC-62
K562 = test system: K562
SN12C = test system: SN12C
SNB-75 = test system: SNB-75
CAKI-1 = test system: CAKI-1
RPMI-8226 = test system: RPMI-8226
HCC 2998 = test system: HCC 2998
SF-295 = test system: SF-295
HT-29 = test system: HT-29
IGROV-1 = test system: IGROV-1
TK-10 = test system: TK-10
HCT-15 = test system: HCT-15
RXF 393 = test system: RXF 393
SK-MEL-5 = test system: SK-MEL-5
DLD-1 = test system: DLD-1
SK-MEL-28 = test system: SK-MEL-28
SF-539 = test system: SF-539
OVCAR-5 = test system: OVCAR-5
SF-268 = test system: SF-268
Malme-3M = test system: Malme-3M
EKVX = test system: EKVX
OVCAR-3 = test system: OVCAR-3
KM-20L2 = test system: KM-20L2
COLO 205 = test system: COLO 205
CCRF-CEM = test system: CCRF-CEM
UACC-257 = test system: UACC-257
ACHN = test system: ACHN
A549 = test system: A549
SW-620 = test system: SW-620
786-0 = test system: 786-0
HCT-116 = test system: HCT-116
HOP-18 = test system: HOP-18
NCI-H522 = test system: NCI-H522
UO-31 = test system: UO-31
NCI-H23 = test system: NCI-H23
LOX IMVI = test system: LOX IMVI
M19-MEL = test system: M19-MEL
OVCAR-8 = test system: OVCAR-8
U-251 = test system: U-251
M14 = test system: M14
HOP-62 = test system: HOP-62
LXFL 529 = test system: LXFL 529
SNB-78 = test system: SNB-78
SK-OV-3 = test system: SK-OV-3
HOP-92 = test system: HOP-92
DMS-114 = test system: DMS-114
KM12 = test system: KM12
SK-MEL-2 = test system: SK-MEL-2
SNB-19 = test system: SNB-19
MOLT-4 = test system: MOLT-4
SR = test system: SR
A498 = test system: A498
DMS-273 = test system: DMS-273

Measured: GI50

COc1cc2c(cc1OC)C(Cc1cc(Br)c(OC)c(OC)c1)=[N+](C)CC2
> 100 µM: HCT-15
inactive: OVCAR-4 19.2 µM | NCI-H226 31.6 µM | NCI-H460 58.1 µM | HL-60 36 µM | UACC-62 > 100 µM | K562 18.8 µM | SN12C 87.3 µM | SNB-75 94.4 µM | CAKI-1 > 100 µM | RPMI-8226 43.2 µM | HCC 2998 > 100 µM | SF-295 30.5 µM | HT-29 33.2 µM | IGROV-1 > 100 µM | TK-10 59.6 µM | RXF 393 69.7 µM | SK-MEL-5 19.2 µM | DLD-1 80 µM | SK-MEL-28 > 100 µM | SF-539 > 100 µM | OVCAR-5 45.1 µM | SF-268 > 100 µM | Malme-3M > 100 µM | EKVX > 100 µM | OVCAR-3 28.2 µM | KM-20L2 39.2 µM | COLO 205 40.6 µM | CCRF-CEM 92.5 µM | UACC-257 11.1 µM | ACHN 90.4 µM | A549 34.8 µM | SW-620 67.3 µM | 786-0 > 100 µM | HCT-116 > 100 µM | HOP-18 > 100 µM | NCI-H522 22.8 µM | UO-31 > 100 µM | NCI-H23 14.6 µM | LOX IMVI 39.3 µM | M19-MEL 56.1 µM | OVCAR-8 27 µM | U-251 8.17 µM | M14 69.8 µM | HOP-62 43.4 µM | LXFL 529 9.73 µM | SNB-78 92.5 µM | SK-OV-3 > 100 µM | HOP-92 28.2 µM | DMS-114 2.52 µM | KM12 > 100 µM | SK-MEL-2 > 100 µM | SNB-19 55.6 µM

O=C1[C@H]2ON(c3ccccc3)C(c3ccccc3Cl)[C@H]2C(=O)N1c1ccc(Cc2ccc(N3C(=O)[C@@H]4ON(c5ccccc5)C(c5ccccc5Cl)[C@@H]4C3=O)cc2)cc1 (stereo partly drawn)
> 100 µM: HCT-15
inactive: OVCAR-4 > 100 µM | NCI-H226 > 100 µM | NCI-H460 > 100 µM | HL-60 > 100 µM | UACC-62 > 100 µM | K562 > 100 µM | SN12C > 100 µM | SNB-75 > 100 µM | CAKI-1 > 100 µM | RPMI-8226 > 100 µM | HCC 2998 > 100 µM | SF-295 > 100 µM | HT-29 > 100 µM | IGROV-1 > 100 µM | TK-10 > 100 µM | SK-MEL-5 71.3 µM | DLD-1 > 100 µM | SK-MEL-28 > 100 µM | SF-539 > 100 µM | MOLT-4 > 100 µM | OVCAR-5 > 100 µM | SF-268 > 100 µM | Malme-3M > 100 µM | EKVX > 100 µM | SR > 100 µM | OVCAR-3 > 100 µM | KM-20L2 > 100 µM | COLO 205 > 100 µM | CCRF-CEM > 100 µM | UACC-257 > 100 µM | ACHN > 100 µM | A549 > 100 µM | A498 > 100 µM | SW-620 > 100 µM | 786-0 > 100 µM | HCT-116 > 100 µM | HOP-18 > 100 µM | NCI-H522 > 100 µM | UO-31 > 100 µM | NCI-H23 > 100 µM | LOX IMVI > 100 µM | M19-MEL > 100 µM | OVCAR-8 > 100 µM | U-251 > 100 µM | DMS-273 > 100 µM | M14 21.7 µM | HOP-62 > 100 µM | LXFL 529 > 100 µM | SNB-78 > 100 µM | SK-OV-3 > 100 µM | HOP-92 71 µM | DMS-114 > 100 µM | KM12 > 100 µM | SK-MEL-2 > 100 µM | SNB-19 > 100 µM

O=C(OCc1ccccc1C1CSCSC1)c1cc(C(=O)OCc2ccccc2C2CSCSC2)c(C(=O)OCc2ccccc2C2CSCSC2)cc1C(=O)OCc1ccccc1C1CSCSC1
> 100 µM: HCT-15
inactive: OVCAR-4 > 100 µM | NCI-H226 > 100 µM | NCI-H460 > 100 µM | HL-60 > 100 µM | UACC-62 > 100 µM | K562 > 100 µM | SN12C > 100 µM | SNB-75 29.4 µM | CAKI-1 > 100 µM | RPMI-8226 > 100 µM | SF-295 > 100 µM | HT-29 > 100 µM | IGROV-1 > 100 µM | TK-10 > 100 µM | RXF 393 > 100 µM | SK-MEL-5 > 100 µM | DLD-1 > 100 µM | SK-MEL-28 > 100 µM | SF-539 > 100 µM | MOLT-4 > 100 µM | OVCAR-5 > 100 µM | SF-268 > 100 µM | Malme-3M > 100 µM | SR > 100 µM | OVCAR-3 > 100 µM | KM-20L2 > 100 µM | COLO 205 > 100 µM | CCRF-CEM > 100 µM | UACC-257 > 100 µM | ACHN > 100 µM | A549 > 100 µM | A498 > 100 µM | SW-620 > 100 µM | 786-0 65 µM | HCT-116 > 100 µM | HOP-18 > 100 µM | NCI-H522 > 100 µM | UO-31 > 100 µM | NCI-H23 > 100 µM | LOX IMVI > 100 µM | M19-MEL > 100 µM | OVCAR-8 > 100 µM | U-251 > 100 µM | DMS-273 > 100 µM | M14 > 100 µM | HOP-62 > 100 µM | LXFL 529 > 100 µM | SNB-78 78.9 µM | SK-OV-3 > 100 µM | HOP-92 > 100 µM | DMS-114 > 100 µM | KM12 > 100 µM | SK-MEL-2 > 100 µM

CC(NC1CCCC[C@H]1O)c1ccccc1 (stereo partly drawn)
inactive: OVCAR-4 > 100 µM | NCI-H226 > 100 µM | NCI-H460 > 100 µM | UACC-62 > 100 µM | SNB-75 > 100 µM | CAKI-1 > 100 µM | RPMI-8226 > 100 µM | HCC 2998 > 100 µM | HT-29 > 100 µM | IGROV-1 > 100 µM | SK-MEL-5 > 100 µM | DLD-1 > 100 µM | SK-MEL-28 > 100 µM | MOLT-4 > 100 µM | OVCAR-5 > 100 µM | Malme-3M > 100 µM | KM-20L2 > 100 µM | COLO 205 > 100 µM | UACC-257 > 100 µM | ACHN > 100 µM | A549 > 100 µM | SW-620 > 100 µM | 786-0 > 100 µM | HCT-116 > 100 µM | HOP-18 > 100 µM | UO-31 > 100 µM | M19-MEL > 100 µM | U-251 > 100 µM | M14 > 100 µM | HOP-62 > 100 µM | LXFL 529 > 100 µM | SNB-78 > 100 µM | SK-OV-3 > 100 µM | HOP-92 > 100 µM | SK-MEL-2 > 100 µM | SNB-19 > 100 µM

Cc1cccc(NC(=O)CC2C(=O)Nc3ccccc3S2(=O)=O)c1C (stereo not drawn)
inactive: OVCAR-4 16.5 µM | NCI-H226 25 µM | NCI-H460 22.6 µM | HL-60 23.3 µM | UACC-62 18.6 µM | K562 9.18 µM | SN12C 97.5 µM | SNB-75 16.9 µM | CAKI-1 66.8 µM | HCC 2998 28.1 µM | SF-295 58.1 µM | HT-29 33.2 µM | IGROV-1 26.1 µM | TK-10 28.9 µM | RXF 393 17.9 µM | SK-MEL-5 28.6 µM | DLD-1 49.7 µM | SK-MEL-28 77.6 µM | SF-539 19.8 µM | MOLT-4 47.9 µM | OVCAR-5 > 100 µM | SF-268 33.2 µM | Malme-3M 22.9 µM | EKVX > 100 µM | SR 11.1 µM | OVCAR-3 21.7 µM | KM-20L2 39.4 µM | COLO 205 > 100 µM | UACC-257 26.9 µM | ACHN 23.2 µM | A549 31.2 µM | A498 30.3 µM | SW-620 28.2 µM | 786-0 29 µM | HCT-116 17.2 µM | HOP-18 22.1 µM | NCI-H522 16.6 µM | UO-31 20.9 µM | NCI-H23 16.7 µM | M19-MEL 32.5 µM | OVCAR-8 20.2 µM | U-251 27 µM | DMS-273 25.8 µM | M14 25.4 µM | HOP-62 22.6 µM | LXFL 529 36.9 µM | SNB-78 26.1 µM | SK-OV-3 21.9 µM | HOP-92 19.1 µM | DMS-114 20.3 µM | KM12 30.8 µM | SK-MEL-2 23.4 µM | SNB-19 32.1 µM
40.6 µM: HCT-15
